Measurements reported in paper PMC8564633, “SMAC/Diablo controls proliferation of cancer cells by regulating phosphatidylethanolamine synthesis” (Molecular Oncology, 2021).
Read-outs that look alike come from different tables or passages of the source. Non-standard residues stand in square brackets, D forms with d. Residues, ends and D or L forms follow the SMILES beside them. Dmt = Cc1cc(O)cc(C)c1C[C@H](N)C(=O)O; Orn = NCCC[C@H](N)C(=O)O

System: A549 cells
Assay type: cell-based, human
Details: 24 h
Protocol: Cells were seeded in 96‐well cell culture plates (8000/well) and allowed to grow for 48 h. After washing with PBS, cells were fixed with 50% trichloroacetic acid and stained with SRB for 20 min. Excess SRB was removed, and cells were washed with 1% acetic acid. SRB extraction was done using 100 mM Tris‐base, and absorbance at 510 nm was determined using an Infinite M1000 plate reader (Tecan, Männedorf, Switzerland).
Fig. 7 PSD‐interacting peptides bind to PSD, inhibiting its activity, and when cell‐penetrating and mitochondria‐ or nucleus‐targeted, inhibit cell proliferation. […] (B) Inhibition of PSD activity by the 2F3 (●) or 1C11 (○) peptide. PSD activity was measured using the DSB‐3 method. (C‐E) Cell proliferation inhibition following incubation of A549 cells with the indicated mitochondria‐ or nucleus‐targeted peptides for 24 h in a serum‐free medium, and cell proliferation was assayed using the SRB method. Results are the means ± SEM (n = 3). (F) A549 cells were incubated for 90 min with 5 µM of the mitochondria‐ or nucleus‐targeted FITC‐labelled peptides, immunostained with anti‐SMAC antibodies and with DAPI and visualized by confocal microscope for subcellular localization. (a) and (b) present higher magnification, white arrows point to possible nuclear localization of the peptide, and blue arrows to its colocalization with mitochondria marker (n = 3). Scale bars represent 20, 10 µm as indicated.
Table S4. Effects of peptide identified as interacting with PSD or their interaction with SMAC/Diablo is prevented in the presence of PSD on A549 lung cancer cell growth A549 cells were seeded in 96-well plate (7000 cells/well). After 24 h cells were incubated without or with the indicated peptide concentration for 24 h in a serum-free medium. Then, cells were washed with PBS, and analyzed for cell growth using the SRB method. Results are the mean ± SD (n=3). Peptide sequence, its identification manner, based on interacting with PSD or their interaction with SMAC/Diablo is prevented in the presence of PSD are shown. In addition, the peptides are presented with the cell penetrating peptide targeting to the mitochondria or the nucleus. The results are presented as the concentration required for 50% inhibition (IC50).
No Peptide spot and Protein/Function Peptide and Cellular IC50 […]
ALSTSSPIPSVPQSQ transcriptional coactivator 2 Mitochondria (A) […]
AQPQTGSGAS truncated poly Q, transcriptional H-(D-Arg)–Dmt–Orn–Phe- 2F3 >100 Interacting with PSD coactivator for NOTCH proteins, Mitochondria promotes proliferative signaling R-{D-Arg}-RK- 2F3 28.9±5.2 during neurogenesis (Nucleus). Nucleus […]
PNQSSRAFQGTDHS transcriptional coactivator 2 Mitochondria
SDLAFDFLSQQ truncated poly Q, A transcriptional D-Arg–Dmt–Orn–Phe-2I8 66.8±4.7 Identified by PSD coactivator for NOTCH proteins, Mitochondria preventing SMAC promotes proliferative signaling R-{D-Arg}-RK-2I8 >100 interaction with it during neurogenesis (Nucleus). Nucleus […]
ALLTSGTSDPRARV protease promotes cell death either Mitochondria […]
TYGTPSLWARL by direct binding to IAPs proteins D-Arg–Dmt–Orn–Phe -1C11 89.3±5.49 Interacting with PSD leading to increased caspase Mitochondria activity or caspase-independent and serine protease activity-dependent R-{D-Arg}-RK- 1C11 66.5±3.9 mechanism. (Mitochondrion Nucleus intermembrane space). 1C11- R-{D-Arg}-RK 30.0±3.8 […]
ELYRMSTYSTFPAG Acts as an E3 ubiquitin-protein Mitochondria
VPVSERSLARA ligase, regulator of NF-kappa-B 1E14- D-Arg–Dmt–Orn–Phe >100 Identified by PSD signaling, apoptosis, cell Mitochondria preventing SMAC proliferation, cell invasion and R-{D-Arg}-RK-1E14 >100 interaction with it metastasis, modulates inflammatory Nucleus signaling, (Cytosol, nucleus and […]

[1] = A549 cells, serum‐free medium, SRB, read-out: IC50, cell proliferation inhibition

Compound	IC50 [µM]	IC50 [1] [µM]
CSCC[C@H](NC(=O)[C@H](CCCNC(=N)N)NC(=O)[C@H](Cc1ccc(O)cc1)NC(=O)[C@H](CC(C)C)NC(=O)[C@H](CCC(=O)O)NC(=O)[C@H](CCCCN)NC(=O)[C@H](CCCNC(=N)N)NC(=O)[C@@H](CCCNC(=N)N)NC(=O)[C@@H](N)CCCNC(=N)N)C(=O)N[C@@H](CO)C(=O)N[C@H](C(=O)N[C@@H](Cc1ccc(O)cc1)C(=O)N[C@@H](CO)C(=O)N[C@H](C(=O)N[C@@H](Cc1ccccc1)C(=O)N1CCC[C@H]1C(=O)N[C@@H](C)C(=O)NCC(=O)N[C@H](C(=O)N1CCC[C@H]1C(=O)N[C@H](C(=O)N[C@@H](CO)C(=O)N[C@@H](CCC(=O)O)C(=O)N[C@@H](CCCNC(=N)N)C(=O)N[C@@H](CO)C(=O)N[C@@H](CC(C)C)C(=O)N[C@@H](C)C(=O)N[C@@H](CCCNC(=N)N)C(=O)N[C@@H](C)C(=O)O)C(C)C)C(C)C)[C@@H](C)O)[C@@H](C)O [R-{D-Arg}-RK-1E14] (H-R[dR]RKELYRMSTYSTFPAGVPVSERSLARA-OH; N-terminus and C-terminus assumed)	> 100	–
Cc1cc(O)cc(C)c1C[C@H](NC(=O)[C@@H](CCCNC(=N)N)NC(=O)[C@H](CC(C)C)NC(=O)[C@H](CCCNC(=N)N)NC(=O)[C@H](C)NC(=O)[C@H](Cc1c[nH]c2ccccc12)NC(=O)[C@H](CC(C)C)NC(=O)[C@H](CO)NC(=O)[C@@H]1CCCN1C(=O)[C@@H](NC(=O)CNC(=O)[C@H](Cc1ccc(O)cc1)NC(=O)[C@@H](NC(=O)[C@@H](NC(=O)[C@H](CCCNC(=N)N)NC(=O)[C@H](C)NC(=O)[C@H](CCCNC(=N)N)NC(=O)[C@@H]1CCCN1C(=O)[C@H](CC(=O)O)NC(=O)[C@H](CO)NC(=O)[C@@H](NC(=O)CNC(=O)[C@H](CO)NC(=O)[C@@H](NC(=O)[C@H](CC(C)C)NC(=O)[C@H](CC(C)C)NC(=O)[C@H](C)N)[C@@H](C)O)[C@@H](C)O)C(C)C)[C@@H](C)O)[C@@H](C)O)C(=O)N[C@@H](CCCN)C(=O)N[C@@H](Cc1ccccc1)C(N)=O [1C11-D-Arg–Dmt–Orn–Phe] (H-ALLTSGTSDPRARVTYGTPSLWARL[dR][Dmt][Orn]F-NH2; N-terminus and C-terminus assumed)	30.3 ± 5.5	–
CC[C@H](C)[C@H](NC(=O)[C@@H]1CCCN1C(=O)[C@H](CO)NC(=O)[C@H](CO)NC(=O)[C@@H](NC(=O)[C@H](CO)NC(=O)[C@H](CC(C)C)NC(=O)[C@H](C)N)[C@@H](C)O)C(=O)N1CCC[C@H]1C(=O)N[C@@H](CO)C(=O)N[C@H](C(=O)N1CCC[C@H]1C(=O)N[C@@H](CCC(N)=O)C(=O)N[C@@H](CO)C(=O)N[C@@H](CCC(N)=O)C(=O)N[C@@H](C)C(=O)N[C@@H](CCC(N)=O)C(=O)N1CCC[C@H]1C(=O)N[C@@H](CCC(N)=O)C(=O)N[C@H](C(=O)NCC(=O)N[C@@H](CO)C(=O)NCC(=O)N[C@@H](C)C(=O)N[C@@H](CO)C(=O)N[C@@H](CCCNC(=N)N)C(=O)N[C@H](CCCNC(=N)N)C(=O)N[C@@H](CCCNC(=N)N)C(=O)N[C@@H](CCCCN)C(=O)O)[C@@H](C)O)C(C)C [2F3-R-{D-Arg}-RK] (H-ALSTSSPIPSVPQSQAQPQTGSGASR[dR]RK-OH; N-terminus and C-terminus assumed)	29.6 ± 0.6	19.6
2F3 -D-Arg–Dmt–Orn–Phe	–	19.6
Cc1cc(O)cc(C)c1C[C@H](NC(=O)[C@@H](CCCNC(=N)N)NC(=O)[C@H](CCC(N)=O)NC(=O)[C@H](CCC(N)=O)NC(=O)[C@H](CO)NC(=O)[C@H](CC(C)C)NC(=O)[C@H](Cc1ccccc1)NC(=O)[C@H](CC(=O)O)NC(=O)[C@H](Cc1ccccc1)NC(=O)[C@H](C)NC(=O)[C@H](CC(C)C)NC(=O)[C@H](CC(=O)O)NC(=O)[C@H](CO)NC(=O)[C@H](CO)NC(=O)[C@H](Cc1c[nH]cn1)NC(=O)[C@H](CC(=O)O)NC(=O)[C@@H](NC(=O)CNC(=O)[C@H](CCC(N)=O)NC(=O)[C@H](Cc1ccccc1)NC(=O)[C@H](C)NC(=O)[C@H](CCCNC(=N)N)NC(=O)[C@H](CO)NC(=O)[C@H](CO)NC(=O)[C@H](CCC(N)=O)NC(=O)[C@H](CC(N)=O)NC(=O)[C@@H]1CCCN1)[C@@H](C)O)C(=O)N[C@@H](CCCN)C(=O)N[C@@H](Cc1ccccc1)C(N)=O [2I8- (D-Arg)-Dmt-Orn-Phe-NH2] (H-PNQSSRAFQGTDHSSDLAFDFLSQQ[dR][Dmt][Orn]F-NH2; N-terminus assumed)	30.2 ± 3.6	–

More lines, main results first:

IC50 [µM]	Compound	IC50 [1] [µM]
30	CC(C)C[C@H](NC(=O)[C@H](C)N)C(=O)N[C@@H](CC(C)C)C(=O)N[C@H](C(=O)N[C@@H](CO)C(=O)NCC(=O)N[C@H](C(=O)N[C@@H](CO)C(=O)N[C@@H](CC(=O)O)C(=O)N1CCC[C@H]1C(=O)N[C@@H](CCCNC(=N)N)C(=O)N[C@@H](C)C(=O)N[C@@H](CCCNC(=N)N)C(=O)N[C@H](C(=O)N[C@H](C(=O)N[C@@H](Cc1ccc(O)cc1)C(=O)NCC(=O)N[C@H](C(=O)N1CCC[C@H]1C(=O)N[C@@H](CO)C(=O)N[C@@H](CC(C)C)C(=O)N[C@@H](Cc1c[nH]c2ccccc12)C(=O)N[C@@H](C)C(=O)N[C@@H](CCCNC(=N)N)C(=O)N[C@@H](CC(C)C)C(=O)N[C@@H](CCCNC(=N)N)C(=O)N[C@H](CCCNC(=N)N)C(=O)N[C@@H](CCCNC(=N)N)C(=O)N[C@@H](CCCCN)C(=O)O)[C@@H](C)O)[C@@H](C)O)C(C)C)[C@@H](C)O)[C@@H](C)O [1C11-R-{D-Arg}-RK] (H-ALLTSGTSDPRARVTYGTPSLWARLR[dR]RK-OH; N-terminus and C-terminus assumed)	–
> 100	CSCC[C@H](NC(=O)[C@H](CCCNC(=N)N)NC(=O)[C@H](Cc1ccc(O)cc1)NC(=O)[C@H](CC(C)C)NC(=O)[C@@H](N)CCC(=O)O)C(=O)N[C@@H](CO)C(=O)N[C@H](C(=O)N[C@@H](Cc1ccc(O)cc1)C(=O)N[C@@H](CO)C(=O)N[C@H](C(=O)N[C@@H](Cc1ccccc1)C(=O)N1CCC[C@H]1C(=O)N[C@@H](C)C(=O)NCC(=O)N[C@H](C(=O)N1CCC[C@H]1C(=O)N[C@H](C(=O)N[C@@H](CO)C(=O)N[C@@H](CCC(=O)O)C(=O)N[C@@H](CCCNC(=N)N)C(=O)N[C@@H](CO)C(=O)N[C@@H](CC(C)C)C(=O)N[C@@H](C)C(=O)N[C@@H](CCCNC(=N)N)C(=O)N[C@@H](C)C(=O)N[C@H](CCCNC(=N)N)C(=O)N[C@@H](Cc1c(C)cc(O)cc1C)C(=O)N[C@@H](CCCN)C(=O)N[C@@H](Cc1ccccc1)C(N)=O)C(C)C)C(C)C)[C@@H](C)O)[C@@H](C)O [1E14-D-Arg–Dmt–Orn–Phe] (H-ELYRMSTYSTFPAGVPVSERSLARA[dR][Dmt][Orn]F-NH2; N-terminus and C-terminus assumed)	–
